Where two headings read alike, the source gives them in different places.
How the values were obtained:
Type in all cases: cell-based
K562 = test: Antiproliferation assay (MTS), K562 cells; conditions: Homo sapiens, K562, 96 h
Method: (§1) Cells were grown at 37° C. in a humidified atmosphere consisting of 5% CO2 and 95% air.
(§2) Antiproliferation Assays: Cells were plated in a 96-well culture plate with 2000-8000 cells per well. The compounds were prepared in DMSO and used to treat cells in a final concentration of less than 1% DMSO. Compound treatment started after overnight incubation of cells (T0). […] Compound was added to the plate in triplicate wells, and the plates were then incubated for 96 hours. DMSO (compound diluent) was also included and added to the plate in control wells. Cell viability was then determined by MTS assay using the CellTiter 96® aqueous non-radioactive cell proliferation assay system (Promega, Madison, Wis. 53711 USA). A plate reader (Vmax, Molecular Devices, Sunnyvale Calif. 94089 USA) was used to determine the optical densities, and the results were used to deduce concentration-response curves. […] The results were analyzed using linear regression software (GraphPad Prism 5; GraphPad Software Inc. La Jolla Calif. 92037 USA).

MDA-MB-468 = test: Antiproliferation assay (MTS), MDA-MB-468 cells; conditions: Homo sapiens, MDA-MB-468, 96 h
Method: as §1, §2

Hela = test: Antiproliferation assay (MTS), HeLa cells; conditions: Homo sapiens, 96 h
Method: as §1, §2

MDA-MB-231 = test: Antiproliferation assay (MTS), MDA-MB-231 cells; conditions: Homo sapiens, MDA-MB-231, 96 h, read-out: Antiproliferative IC50 MDA-MB-231, Table 1
Method: as §1, §2

[1] = Table 1, read-out: Antiproliferative IC50 K562
[2] = Table 1, read-out: Antiproliferative IC50 MDA-MB-468
[3] = Table 1, read-out: Antiproliferative IC50 Hela
[4] = Table 2, read-out: Antiproliferative IC50 Hela

| IC50 (K562; [1]) [nM] | IC50 (MDA-MB-468; [2]) [nM] | IC50 (Hela; [3]) [nM] | IC50 (MDA-MB-231) [nM] | IC50 (K562; Table 2, read-out: Antiproliferative IC50 K562) [nM] | IC50 (Hela; [4]) [nM] | IC50 (MDA-MB-468; Table 2, read-out: Antiproliferative IC50 MDA-MB-468) [nM] | SMILES |
| --- | --- | --- | --- | --- | --- | --- | --- |
| 59.2 | 69.7 | 80.1 | 80.7 |  |  |  | Cc1cc(Oc2ccc(OC(C)C)cc2)cc(C)c1-c1csc(NC(=O)c2ccncc2)n1 [Compound 16, N-{4-(4-(4-Isopropoxyphenoxy)-2,6-dimethylphenyl)thiazol-2-yl}isonicotinamide] |
| 23.4 | 27 | 26.9 | 28.2 |  |  |  | COc1ccc(Sc2cc(C)c(-c3csc(NC(=O)c4ccncc4)n3)c(Cl)c2)cc1 [Compound 3, N-{4-(2-Chloro-4-(4-methoxyphenylsulfanyl)-6-methylphenyl)thiazol-2-yl}isonicotinamide] |
| 64.4 | 132 | 84.8 | 99.4 |  |  |  | Cc1cc(Oc2ccc(Oc3ccccc3)cc2)cc(C)c1-c1csc(NC(=O)c2ccncc2)n1 [Compound 26, N-{4-(2,6-Dimethyl-4-(4-phenoxyphenoxy)phenyl)thiazol-2-yl}isonicotinamide] |
| 128 | 352 | 500 | 197 |  |  |  | Cc1cc(Sc2cccc(Cl)c2)cc(C)c1-c1csc(NC(=O)c2ccncc2)n1 [Compound 38, N-{4-(4-(3-Chlorophenylsulfanyl)-2,6-dimethylphenyl)thiazol-2-yl}isonicotinamide] |
| 62.5 | 226 | 243 | 148 |  |  |  | Cc1cc(Sc2ccc(Br)cc2)cc(C)c1-c1csc(NC(=O)c2ccncc2)n1 [Compound 37, N-{4-(4-(4-Bromophenylsulfanyl)-2,6-dimethylphenyl)thiazol-2-yl}isonicotinamide] |
|  |  |  |  |  |  | 1220 | Cc1cc(Nc2ccc(Br)cc2)cc(C)c1-c1csc(NC(=O)c2ccncc2)n1 [II-122, N-(4-(4-(4-Bromophenylamino)-2,6-dimethylphenyl)thiazol-2-yl)isonicotinamide] |
| 107 | 143 | 108 | 270 |  |  |  | COc1ccc(Oc2cc(C)c(-c3csc(NC(=O)c4ccncc4)n3)c(F)c2)cc1 [Compound 30, N-{4-(2-Fluoro-4-(4-methoxyphenoxy)-6-methylphenyl)thiazol-2-yl}isonicotinamide] |
| 28.3 | 73 | 57.1 | 49.4 |  |  |  | COc1ccc(Sc2cc(C)c(-c3csc(NC(=O)c4ccncc4)n3)c(C)c2)cc1OC [Compound 33, N-{4-(4-(3,4-Dimethoxyphenylsulfanyl)-2,6-dimethylphenyl)thiazol-2-yl}isonicotinamide] |
| 148 | 158 | 73.8 | 181 |  |  |  | Cc1cc(Oc2ccc([N+](=O)[O-])nc2)cc(C)c1-c1csc(NC(=O)c2ccncc2)n1 [Compound 24, N-{4-(2,6-Dimethyl-4-(6-nitropyridin-3-yloxy)phenyl)thiazol-2-yl}isonicotinamide] |

More lines, now with the values behind:

| SMILES | IC50 (K562; [1]) [nM] | IC50 (MDA-MB-468; [2]) [nM] | IC50 (Hela; [3]) [nM] | IC50 (MDA-MB-231) [nM] | IC50 (K562; Table 2, read-out: Antiproliferative IC50 K562) [nM] | IC50 (Hela; [4]) [nM] | IC50 (MDA-MB-468; Table 2, read-out: Antiproliferative IC50 MDA-MB-468) [nM] |
| --- | --- | --- | --- | --- | --- | --- | --- |
| Cc1cc(OCC2CC2)cc(C)c1-c1csc(NC(=O)c2ccncc2)n1 [Compound 4, N-{4-(4-(Cyclopropylmethoxy)-2,6-dimethylphenyl)thiazol-2-yl}isonicotinamide] | 206 | 245 | 281 | 157 |  |  |  |
| COCCOc1cnc(S(=O)(=O)c2cc(C)c(-c3csc(NC(=O)c4ccncc4)n3)c(C)c2)cn1 [Compound 31, N-(4-{4-(5-(2-Methoxyethoxy)pyrazin-2-ylsulfonyl)-2,6-dimethylphenyl}thiazol-2-yl)isonicotinamide] | 635 | 1000 | 957 | 1120 |  |  |  |
| COc1cc(Cl)c(-c2csc(NC(=O)c3ccncc3)n2)c(Cl)c1 [Compound 10, N-(4-(2,6-Dichloro-4-methoxyphenyl)thiazol-2-yl)isonicotinamide] | 633 | 6550 | 4430 | 2330 |  |  |  |
| CC(=O)Nc1ccc(Sc2cc(C)c(-c3csc(NC(=O)c4ccncc4)n3)c(C)c2)cc1 [Compound 36, N-{4-(4-(4-Acetylaminophenylsulfanyl)-2,6-dimethylphenyl)thiazol-2-yl}isonicotinamide] | 18.9 | 62.4 | 24.5 | 44.3 |  |  |  |
| Cc1cc(Oc2cnccn2)cc(C)c1-c1csc(NC(=O)c2ccncc2)n1 [Compound 7, N-{4-(2,6-Dimethyl-4-(pyrazin-2-yloxy)phenyl)thiazol-2-yl}isonicotinamide] | 92 | 191 | 217 | 161 |  |  |  |
| Cc1cc(Sc2cnccn2)cc(C)c1-c1csc(NC(=O)c2ccncc2)n1 [Compound 11, N-{4-(2,6-Dimethyl-4-(pyrazin-2-ylthio)phenyl)thiazol-2-yl}isonicotinamide] | 38.2 | 52.4 | 33.4 | 47.4 |  |  |  |
| Cc1cc(C)c(-c2csc(NC(=O)/C=C/c3cccnc3)n2)c(C)c1 [II-103, (E)-N-(4-Mesitylthiazol-2-yl)-3-(pyridin-3-yl)acrylamide] |  |  |  |  | 2480 | > 10000 |  |
| COc1ccc(Oc2cc(C)c(-c3csc(NC(=O)c4ccncc4)n3)c(C)c2)nc1 [Compound 18, N-(4-{4-((5-Methoxypyridin-2-yl)oxy)-2,6-dimethylphenyl}thiazol-2-yl)isonicotinamide] | 43.7 | 49.4 | 40.6 | 40.8 |  |  |  |
| Cc1cc(Nc2ccc(Br)cc2)cc(C)c1-c1csc(NC(=O)c2ccncc2)n1 [Compound 52, N-(4-(4-(4-Bromophenylamino)-2,6-dimethylphenyl)thiazol-2-yl)isonicotinamide] | 362 |  | 2130 | 717 |  |  |  |
| Cc1cc(C)c(-c2csc(NC(=O)/C=C/c3cccnc3)n2)c(C)c1 [Compound 50, (E)-N-(4-Mesitylthiazol-2-yl)-3-(pyridin-3-yl)acrylamide] |  | 2170 |  | 1110 |  |  |  |
| Cc1cc(Sc2cnc(OCCN(C)C)cn2)cc(C)c1-c1csc(NC(=O)c2ccncc2)n1 [Compound 28, N-(4-(4-{5-(2-(Dimethylamino)ethoxy)pyrazin-2-ylthio}-2,6-dimethylphenyl)thiazol-2-yl)isonicotinamide] | 59.2 | 74.5 | 32.8 | 124 |  |  |  |
| Cc1cc(Sc2ccc(N(S(C)(=O)=O)S(C)(=O)=O)cc2)cc(C)c1-c1csc(NC(=O)c2ccncc2)n1 [Compound 42, N-(4-(2,6-Dimethyl-4-((4-(N-(methylsulfonyl)methylsulfonamido)phenyl)thio)phenyl)thiazol-2-yl)isonicotinamide] | 59.3 | 121 | 167 | 76.6 |  |  |  |
| COc1cnc(Oc2cc(C)c(-c3csc(NC(=O)c4ccncc4)n3)c(C)c2)nc1 [Compound 8, N-{4-(4-(5-Methoxypyrimidin-2-yloxy)-2,6-dimethylphenyl)thiazol-2-yl}isonicotinamide] | 71.8 | 85.4 | 130 | 121 |  |  |  |
| Cc1cc(Sc2ccccc2Cl)cc(C)c1-c1csc(NC(=O)c2ccncc2)n1 [Compound 39, N-{4-(4-(2-Chlorophenylsulfanyl)-2,6-dimethylphenyl)thiazol-2-yl}isonicotinamide] | 36.2 | 73.9 | 211 | 55.9 |  |  |  |
| Cc1cc(Sc2nccn2C)cc(C)c1-c1csc(NC(=O)c2ccncc2)n1 [Compound 41, N-(4-(2,6-Dimethyl-4-((1-methyl-1H-imidazol-2-yl)thio)phenyl)thiazol-2-yl)isonicotinamide] | 31.1 | 62.9 | 61.5 | 86.1 |  |  |  |
| Cc1cc(Sc2ccc(Cl)cc2)cc(C)c1-c1csc(NC(=O)c2ccncc2)n1 [Compound 40, N-{4-(4-(4-Chlorophenylsulfanyl)-2,6-dimethylphenyl)thiazol-2-yl}isonicotinamide] | 93.5 | 124 | 585 | 200 |  |  |  |
| COc1cc(C)c(-c2csc(NC(=O)Nc3ccncc3)n2)c(C)c1 [II-67, 1-(4-(4-Methoxy-2,6-dimethylphenyl)thiazol-2-yl)-3-(pyridin-4-yl)urea] |  |  |  |  |  | > 10000 |  |
| Cc1cc(Sc2ccc(N)cc2)cc(C)c1-c1csc(NC(=O)c2ccncc2)n1 [Compound 35, N-{4-(4-(4-Aminophenylsulfanyl)-2,6-dimethylphenyl)thiazol-2-yl}isonicotinamide] | 26.1 | 95.8 | 43.8 | 46.9 |  |  |  |
| Cc1cc(C)c(-c2csc(NC(=O)Cc3ccncc3)n2)c(C)c1 [Compound 47, N-(4-Mesitylthiazol-2-yl)-2-(pyridin-4-yl)acetamide] | 382 | 304 | 619 | 312 |  |  |  |
| COc1cc(C)c(-c2csc(NC(=O)Nc3ccncc3)n2)c(C)c1 [Compound 45, 1-(4-(4-Methoxy-2,6-dimethylphenyl)thiazol-2-yl)-3-(pyridin-4-yl)urea] | 486 | 615 |  | 628 |  |  |  |

Reference: patent US8999983B2, “Modulators of Hec1 activity and methods therefor” (Taivex Therapeutics Corporation, priority 2011, dated 2015)
